Values joined by “and” are separate entries in the source; they are usually repeats but may differ in a detail not shown here. Equal entries are not always repeated. Active and inactive are the calls of the source.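 How the source made its calls: active means compounds giving half or more protection of infected cells from virus-caused growth loss, again on retest; inactive means the rest.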 Where a SMILES comes first, the peptide text is derived from it. The star is where a group is joined. Cbz = O=C(OCc1ccccc1)*

Data on 72 compounds can be found in PubChem BioAssay AID179 (DTP/NCI, 2004).

This experiment deals with CEM cells HIV-1 protection, formazan growth assay. Description: NCI AIDS Antiviral Assay. The following applies: for IC50: measured here: growth of uninfected CEM cells. A digest of the protocol: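 CEM (human) cells, HIV-1 infected vs uninfected, 5-point dosing, formazan growth read-out. Retest threshold 50% protection.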

On to `O=C(c1ccc(Cl)cc1)c1ccc(OCCCOc2ccc(C(=O)c3ccc(Cl)cc3)cc2Cl)c(Cl)c1`, for which the EC50 was above 4.79 µM and the IC50 is above 4.79 µM.

Turning to `Cc1cn([C@H]2[C@@H](CO)C[C@H]2O)c(=O)[nH]c1=O`, the EC50 is above 200 µM and the 50% inhibitory concentration (IC50) was above 200 µM.

As for `O=Nc1c(NO)ccc2nn(-c3ccccc3)nc12`, the EC50 is above 20 µM and the 50% inhibitory concentration (IC50) was 1.32 µM.

As for `O=[N+]([O-])c1ccccc1SCc1ccccc1`, the EC50 is above 55 µM and the half-maximal inhibitory concentration (IC50) is 50.1 µM.

Take `Cc1cn(C2C[C@H](O)[C@]3(CO)C[C@H]23)c(=O)[nH]c1=O` (some centres undefined): the EC50 is above 100 µM and the concentration for half-maximal inhibition (IC50) is above 100 µM.

As to `CC(=O)OC1C(C)OC(OC2[C@@H]3C=CO[C@@H](OC4OC(CO)C(O)C(O)C4O)[C@@H]3[C@@]3(CO)O[C@@H]23)C(OC(=O)/C=C/c2ccccc2)C1OC(=O)/C=C/c1ccccc1` (some centres undefined), the EC50 was above 21.9 µM and the concentration for half-maximal inhibition (IC50) is above 21.9 µM.

Turning to `O=[N+]([O-])c1ccc2n[nH]nc2c1`, the EC50 is above 200 µM and the IC50 amounted to 182 µM.

Turning to `CCN(CC)c1nc(=O)c(C(=O)C(C)(C)C)c(C(C)(C)C)o1`, the EC50 was above 200 µM and the IC50 is above 200 µM.

As to `N#C/C(C(=N)c1ccccc1)=C1\SS/C(=C(\C#N)C(=N)c2ccccc2)S1`, the EC50 was above 200 µM and the 50% inhibitory concentration (IC50) is 6.03 µM.

`CC(C)N=C(NC#N)NS(=O)(=O)c1cnccc1NC1CCCCCCC1`: the EC50 was above 200 µM and the IC50 was above 200 µM.

For `COc1c(Cl)cc(C(=Cc2c(F)c(F)c(F)c(F)c2F)c2cc(Cl)c(OC)c(C(=O)O)c2)cc1C(=O)O`, the EC50 is 324 µM and the half-maximal inhibitory concentration (IC50) was 490 µM.

Regarding `C/C=C/c1cc(=O)c([C@@H]2OC(=O)c3cc(OC)cc(OC)c32)co1`, the EC50 is above 200 µM and the 50% inhibitory concentration (IC50) worked out at 83.2 µM.

Regarding `CCC12CCCN(Cc3ccccc3)C1c1c(n(C)c3ccccc13)CC2` (centres undefined), the EC50 was above 66.1 µM and the IC50 is above 66.1 µM.

Regarding `O=C(CC1(O)C(=O)Nc2ccccc21)c1ccncc1` (centres undefined), the outcome was inactive.

On to `O=C1/C(=C\c2ccc(Br)cc2)CCCc2ccccc21`, for which the EC50 was above 200 µM and the half-inhibitory concentration (IC50) came to 22.4 µM.

`c1ccc2c(c1)ncn1nnnc21`: the EC50 is above 955 µM and the IC50 is 501 µM.

On to `COCC[P+](c1ccccc1)(c1ccccc1)c1ccccc1`, for which the EC50 is above 200 µM and the concentration for half-maximal inhibition (IC50) was 7.76 µM.

With `CCOC(=O)c1ccc(NC(NC(=O)CC)(C(F)(F)F)C(F)(F)F)cc1`, the EC50 was above 200 µM and the IC50 stood at 24.5 µM.

Consider `CCOC(=O)C1=C(C)C2C3C(=O)NC(=O)C3C1(C)C1C(=O)NC(=O)C21` (centres undefined), for which the EC50 was above 724 µM and the IC50 was above 724 µM.

On to `O=C1NC2(CCNCC2)Oc2ccccc21`, for which the EC50 is above 200 µM and the IC50 was above 200 µM.

`COC(=O)/C(=C/c1c[nH]c2ccccc12)NC=O`: the EC50 is above 200 µM and the IC50 was above 200 µM.

`Oc1nc2nc[nH]n2c1N=Nc1ccccc1`: the EC50 is above 200 µM and the IC50 was above 200 µM.

In the case of `Nc1nc(Br)nc2ncn(C3CC(O)C(CO)O3)c12` (centres undefined), the EC50 is above 200 µM and the IC50 was 7.41 µM.

Take `COc1oc(C(=O)NC2CCCCC2)c(-c2ccc(Cl)cc2)c1S(=O)(=O)c1ccccc1`: the EC50 was above 200 µM and the IC50 was determined as 9.77 µM.

`CN1C/C(=C\c2cccs2)C2=NN(c3ccccc3)C(c3cccs3)C2C1` (centres undefined): the EC50 is above 200 µM and the IC50 amounted to 10.7 µM.

For the compound `CN1C(=O)/C(=N\n2c(-c3ccccc3)nc3ccccc3c2=O)c2cc(Br)ccc21`, the EC50 was above 200 µM and the half-inhibitory concentration (IC50) was above 200 µM.

Consider `NCCS/C=C\C(=O)OCc1ccc(Br)cc1`, for which the EC50 was above 708 µM and the IC50 came to 64.6 µM.

Turning to `c1ccc(N=C(N2CCCCC2)N(CCN2CCCCC2)c2ccccc2)cc1`, the EC50 is above 200 µM and the concentration for half-maximal inhibition (IC50) was 1.82 µM.

With `O=C(NC(Nc1ccc(F)c(Cl)c1)(C(F)(F)F)C(F)(F)F)OCc1ccccc1`, the EC50 was above 200 µM and the half-inhibitory concentration (IC50) stood at 30.9 µM.

As to `O=C1c2c(O)cc(O)c(OC3OC(CO)C(O)C(O)C3O)c2OC(c2ccc(O)c(O)c2)C1O` (centres undefined), the EC50 was above 513 µM and the IC50 was 57.5 µM.

Regarding `CCOc1ccc(NC(=O)CCC(=O)NN)cc1`, the EC50 is above 724 µM and the IC50 is 603 µM.

Consider `CCN(CC)CCOC(=O)Cc1cccc2c(=O)cc(-c3ccccc3)oc12`, for which the result was inactive.

For `CCC(C)(O)c1cn(-c2ccc(S(=O)(=O)O)cc2)nn1` (centres undefined), the EC50 was above 417 µM and the IC50 was above 417 µM.

As to `Cc1cc(/C=C\c2ccnc3ccccc23)ccc1N(C)C`, the result was inactive.

Regarding `CC1(C)C=CC(C)(C)c2c(NS(=O)(=O)c3ccccc3)ccc(NS(=O)(=O)c3ccccc3)c21`, the EC50 is above 200 µM and the IC50 was 63.1 µM.

For `C/C(CCN(C)C)=N/O`, the outcome was inactive.

As to `O=[N+]([O-])c1cc([As](=O)(O)O)ccc1Cl`, the concentration giving a half-maximal response (EC50) was above 200 µM and the half-maximal inhibitory concentration (IC50) is above 200 µM.

In the case of `O=C1NC(=S)S/C1=C/c1ccco1`, the EC50 is above 123 µM and the IC50 is 72.4 µM.

Regarding `CCOC(=O)C1=NNC(C(=O)c2ccccc2)C1c1ccccc1` (centres undefined), the EC50 is above 200 µM and the half-maximal inhibitory concentration (IC50) stood at 2.19 µM.

In the case of `CC(=O)N(O)C(C)=O`, the EC50 was above 2140 µM and the IC50 amounted to 1780 µM.

Regarding `CCN1CCC(O)(c2ccc(Oc3ccc(Cl)cc3)cc2)C(C(=O)c2ccc(Oc3ccc(Cl)cc3)cc2)C1` (centres undefined), the EC50 is above 200 µM and the IC50 worked out at 7.59 µM.

On to `NCc1ccc(-c2ccc(-c3ccc(-c4ccc(CN)s4)s3)s2)s1`, for which the EC50 is above 100 µM and the IC50 was 72.4 µM.

Take `C[C@@H]1c2ccc3c(c2C2(O)C[C@H]4CCC1N2C4)CC1[C@H]3CC(=O)C2C[C@@H](O)CC[C@@]21C` (some centres undefined): the EC50 is above 155 µM and the IC50 was above 155 µM.

With `O=C(CC(=O)Nc1ccccc1)Nc1ccccc1`, the EC50 is above 102 µM and the concentration for half-maximal inhibition (IC50) was above 102 µM.

For `CN1CCN(C2Sc3ccccc3C(=O)N3CCCC23)CC1` (centres undefined), the EC50 was above 126 µM and the IC50 is above 126 µM.

Consider `CCCCCCC1N(Cc2ccc(Cl)cc2)CCCN1Cc1ccc(Cl)cc1`, for which the EC50 is above 200 µM and the IC50 came to 12 µM.

In the case of `Cc1nc(-n2nc(-c3ccccc3)cc2-c2ccccc2)sc1C(=O)/C=C/c1ccc(Cl)cc1`, the EC50 is above 14.8 µM and the 50% inhibitory concentration (IC50) was above 14.8 µM.

Take `Nc1nc(N)nc(-c2cnccn2)n1`: the EC50 was above 200 µM and the concentration for half-maximal inhibition (IC50) is above 200 µM.

On to `COc1ccc(NC(=O)C2C(=O)N(c3ccc(OC)cc3)C(=O)/C2=N\NC(N)=O)cc1` (centres undefined), for which the EC50 was above 61.7 µM and the half-maximal inhibitory concentration (IC50) is above 61.7 µM.

As for `CC(=O)OC1C(O)COC(O[C@H]2CC[C@]34C[C@]35CC[C@]3(C)C([C@@]6(C)CC[C@@H](C(C)(C)O)O6)[C@@H](O)C[C@@]3(C)C5C[C@H](OC3OCC(O)C(O)C3O)[C@H]4C2(C)C)C1OC1OCC(O)C(O)C1O` (some centres undefined), the EC50 is above 200 µM and the IC50 was above 200 µM.

Consider `O=C1NC(=O)/C(=C\c2cccc(Br)c2)N1`, for which the EC50 was above 200 µM and the half-maximal inhibitory concentration (IC50) came to 105 µM.

On to `COC(=O)C(NC(=O)c1ccccc1)C(c1ccc(Cl)cc1)P(=O)(OC)OC` (centres undefined), for which the EC50 was above 309 µM and the 50% inhibitory concentration (IC50) was above 309 µM.

As for `C1=CC2/C=C\c3[nH]c4ccccc4c3CCN(C1)C2` (centres undefined), the EC50 is above 162 µM and the half-inhibitory concentration (IC50) came to 75.9 µM.

`O=C(O)c1cccc2cccc(-c3c4ccc(=O)c(O)c-4oc4c(O)c(O)ccc34)c12` yielded an EC50 of 29.5 µM and an IC50 of 33.1 µM.

As to `O=C(NCCCNCCNC(=O)c1cc(-c2ccccc2)nc2ccccc12)c1cc(-c2ccccc2)nc2ccccc12`, the EC50 was above 20 µM and the IC50 came to 3.02 µM.

As to `CC(C)=CCC/C(C)=C/CC/C(C)=C/OP(=O)(O)OP(=O)(O)O`, the EC50 is above 162 µM and the IC50 was above 162 µM.

On to `CC(C)(C)OC(=O)c1ccc(NCC2=CC(=O)C=CC2=O)cc1`, for which the EC50 is above 200 µM and the IC50 came to 10.2 µM.

Take `O=C1c2ccccc2Sc2ccccc2N1CCCCN1CCN(c2ccc(F)cc2)CC1`: the EC50 is above 200 µM and the IC50 was above 200 µM.

On to `Nc1cccc(OCC2CCCN3CCCCC23)c1` (centres undefined), for which the EC50 is above 200 µM and the IC50 is 13.8 µM.

On to `CN(C)CC1CCCC/C1=N/OC(=O)c1ccc(Cl)c(Cl)c1` (centres undefined), for which the result was inactive.

Take `O=S1(=O)C2C=CCC1C(O)CC2` (centres undefined): the EC50 is above 933 µM and the IC50 is above 933 µM.

Consider `COc1cc2c(cc1O)C1(Cc3ccc4c(c3C1=O)OCO4)N(C)CC2` (centres undefined), for which the EC50 was above 200 µM and the half-inhibitory concentration (IC50) is above 200 µM.

As to `Cc1ccccc1NC(=O)Cc1csc2[n+]1C(=O)/C(=C\c1ccc3c(c1)OCO3)S2`, the EC50 was above 200 µM and the half-inhibitory concentration (IC50) worked out at 38.9 µM.

As to `COc1ccc2c(c1)CCN=C2Cc1cc(OC)c(OC)cc1CCCl`, the EC50 was above 200 µM and the 50% inhibitory concentration (IC50) worked out at 53.7 µM.

`O=c1/c(=N\O)c(=O)c2ccccc2/c1=N\O`: the EC50 was above 200 µM and the IC50 turned out to be 10 µM.

In the case of `Cc1cc2ccccc2n1CC(=O)N1CCCC1`, the EC50 was above 200 µM and the 50% inhibitory concentration (IC50) was above 200 µM.

Regarding `CCOC(=O)CNC(=O)C(C)NC(=O)C(NC(=O)OCc1ccccc1)C(C)C` (stereo not drawn) (Cbz-Val-Ala-Gly-OEt; configuration not given here), the EC50 was above 200 µM and the IC50 turned out to be 115 µM.

As to `CC1(C)OC[C@@H]([C@H](C=O)OCc2ccccc2)O1`, the EC50 was above 200 µM and the IC50 is above 200 µM.

Regarding `CC1(C)C2CCC1(C)C(N=C(N)CSS(=O)(=O)O)C2` (centres undefined), the EC50 was above 200 µM; the IC50 is 49 µM and 30.9 µM.

With `CCOC(=O)/C=C\n1c(=O)cc(C)c2ccccc21`, the EC50 was above 200 µM and the IC50 is above 200 µM.

On to `Cc1ccc(NC(=O)CC2SC(=Nc3cccc(Cl)c3C)NC2=O)cc1` (centres undefined), for which the EC50 was above 240 µM and the 50% inhibitory concentration (IC50) was 110 µM.

As to `Cc1cccc(NC(=O)O/N=C(\Cl)C(C)C)c1`, the EC50 is above 20 µM and the IC50 amounted to 2.82 µM.
